PubChem BioAssay (NCI)
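The compound was tested at five concentrations on cells cultured in 96-well plates, with a 48-hour exposure period. At the TGI there is no net growth.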

What was measured:
Experiment in all cases: NCI tumour cell line growth inhibition, 48 h
[1] = system: UO-31 renal
[2] = system: KM12 colon
[3] = system: CCRF-CEM leukemia
[4] = system: SNB-19 CNS
[5] = system: HCT-116 colon
[6] = system: HOP-62 NSCLC
[7] = system: SF-295 CNS
[8] = system: NCI-H460 lung
[9] = system: PC-3 prostate
[10] = system: SK-OV-3 ovarian

Compound	TGI [1] [µM]	TGI [2] [µM]	TGI [3] [µM]	TGI [4] [µM]	TGI [5] [µM]	TGI [6] [µM]	TGI [7] [µM]	TGI [8] [µM]	TGI [9] [µM]	TGI [10] [µM]
O=C1C=C/C(=C/[C@H]2SSC=C[C@]23C=CC(=O)C3)C1	32.5	46.6	9.27	> 100	22	> 73.8	> 100	> 94.3	> 84.9	> 100
CN(C)C(=O)Oc1ccc(C(=S)Nc2ccccc2)cc1	> 100	> 100	79.6	> 100	> 100	> 100	> 100	> 100	> 100	> 100
C#CCOC(=O)C(=[N+]=[N-])C(=O)CC(C)C	> 10	> 10	> 10	> 10	> 10	> 10	> 10	> 10	> 10	> 10
CCOC(=O)c1cc2c3c(cc(OC)c2[nH]1)N(C(=O)OCC)CC3	> 100	> 100	> 100	> 100	> 100	> 100	> 100	> 100	> 100	> 100
CC1CCCN1CCCOC(=O)c1ccc(OC2C=CCCC2)cc1 (stereo not given)	> 100	> 100	66.7	> 100	35.8	42.1	37.9	32.9	78.9	> 100
Cc1cc2c(cc1Cl)Sc1n[nH]c(=O)n1S2(=O)=O	> 100	> 100	> 100	> 100	> 100	> 100	> 100	> 100	> 100	> 100
CC(=O)N1c2cc(N=NN(C)C)ccc2NC(=O)CC1C (stereo not given)	> 100	> 100	> 100	> 100	> 100	> 100	> 100	> 100	> 100	> 100
CCOC(=O)c1cn(CC)c2ccc3c(c2c1=O)S(=O)(=O)C=C3	> 100	> 100	> 100	> 100	> 100	> 100	> 100	> 100	> 100	> 100
Cc1ccccc1Nc1nc2ccccc2nc1NS(=O)(=O)c1ccccc1	> 100	> 100	> 100	> 100	> 100	> 100	> 100	> 100	> 100	> 100
c1cc2c(cc1[C@@H]1OC[C@@H]3[C@H]1CO[C@H]3c1ccc3c(c1)OCO3)OCO2	> 100	71	> 100	> 100	> 100	> 100	> 100	> 100	> 100	> 100
Cc1cc2occ(S(=O)(=O)NC(=O)Nc3ccc(Cl)cc3)c(=O)c2c(=O)o1	> 100	> 100	> 100	> 100	> 100	> 100	> 100	> 100	> 100	> 100
CCCCCCCc1ccc(-c2nnc(N=Nc3ccc(OCCCCC)cc3)s2)s1	> 100	> 100	> 100	> 100	> 100	> 100	> 100	> 100	> 100	> 100
S=c1[nH]nc(CCCCCCCCc2n[nH]c(=S)o2)o1	> 100	> 100	> 100	> 100	> 100	> 100	> 100	> 100	> 100	> 100
COc1cc2c(cc1OC)C(=O)/C(=C/c1ccc(N(C)C)cc1)CC2	> 10	> 10	> 10	> 10	> 10	> 10	> 10	> 10	> 10	> 10
COc1cccc(CCCNC(=O)Cc2ccccc2CO)c1	> 100	> 100	> 100	> 100	> 100	> 100	> 100	> 100	> 100	> 100
CC(C)(CN1CCCCC1)C(=O)CC(SCCS(=O)(=O)O)c1ccc(Cl)cc1 (stereo not given)	15.1	19.2	6.04	28.9	13.6	25	15.8	25.2	18.1	28.8
COc1ccc(N=Nc2c(N)nn3c(SC)c(C#N)c(N)nc23)cc1	25.4	30.2	4.84	37.6	28.4	44	39.5	34.7	21.5	38.8
C=CCNC1=C2C[C@@H](C)C[C@@H](OC)[C@H](OC(=O)CCN(C)C)[C@H](C)/C=C(\C)[C@@H](OC(N)=O)[C@H](OC)/C=C\C=C(/C)C(=O)NC(=CC1=O)C2=O	27.1	1.98	> 55.3	23.1	16.5	13.4	12.3	16.1	14.3	2.73
C/C(Nc1ccc(Cl)cc1)=C1/CCOC1=O	> 100	> 100	> 100	> 100	> 100	> 100	> 100	> 100	> 100	> 100
